Experimental data as given in publication PMC8196580, “Identification of Kaurane-Type Diterpenes as Inhibitors of Leishmania Pteridine Reductase I” (Molecules, 2021).
Like-named read-outs stand apart in the source and are kept apart here.

Experiments:
L. major [1] = tested on: L. major; set-up: method as in ChEMBL; conditions: ref ChEMBL, cited from earlier work
L. major [2] = experiment: ChEMBL dataset of pIC50 values against L. major used for the RF model (Table S1); format: cell-based, Leishmania major; note: call rule not given here
[3] = ChemBL structures with pIC50 values used for Random forest model construction, L. major
[4] = Active/Inactive class assigned to the ChEMBL pIC50 value for Random forest model construction, ref ChEMBL
[5] = ChemBL structures with pIC50 values used for Random forest model construction (Table S1)
[6] = Active/Inactive class assigned to ChemBL structures for Random forest model construction (Table S1)

| Structure (SMILES) | pIC50 Value (L. major [1]; [3]) | Outcome (L. major [2]; [4]) | pIC50 Value (L. major [1]; [5]) | Outcome (L. major [2]; [6]) |
| --- | --- | --- | --- | --- |
| Clc1ccc2c(c1)Nc1ccccc1O2 [CHEMBL1801896] | 4.16 | Inactive |  |  |
| Cc1ccc2cc(/C=C/C(=O)c3ccsc3)c(Cl)nc2c1 [CHEMBL1940850] |  |  | 5.55 | Active |
| Cc1ccc2cc(/C=C/C(=O)c3sccc3C)c(Cl)nc2c1 [CHEMBL1940851] |  |  | 5.55 | Active |
| Cc1csc(C(=O)/C=C/c2cc3ccc(C)cc3nc2Cl)c1 [CHEMBL1940852] |  |  | 5.60 | Active |
| Cc1ccc2cc(/C=C/C(=O)c3ccc(C)s3)c(Cl)nc2c1 [CHEMBL1940853] |  |  | 5.65 | Active |
| Cc1ccc2cc(/C=C/C(=O)c3cc(C)sc3C)c(Cl)nc2c1 [CHEMBL1940854] |  |  | 5.74 | Active |
| Cc1ccc2cc(/C=C/C(=O)c3sccc3Cl)c(Cl)nc2c1 [CHEMBL1940855] |  |  | 5.77 | Active |
| Cc1ccc2cc(/C=C/C(=O)c3ccc(Cl)s3)c(Cl)nc2c1 [CHEMBL1940856] |  |  | 5.63 | Active |
| Cc1ccc2cc(/C=C/C(=O)c3cc(Cl)sc3Cl)c(Cl)nc2c1 [CHEMBL1940857] |  |  | 5.69 | Active |
| Cc1ccc2cc(/C=C/C(=O)c3sccc3Br)c(Cl)nc2c1 [CHEMBL1940858] |  |  | 5.74 | Active |
| Cc1ccc2cc(/C=C/C(=O)c3ccc(Br)s3)c(Cl)nc2c1 [CHEMBL1940859] |  |  | 5.64 | Active |
| Cc1ccc2cc(/C=C/C(=O)c3ccc(I)s3)c(Cl)nc2c1 [CHEMBL1940860] |  |  | 5.72 | Active |
| Cc1cccc2cc(/C=C/C(=O)c3ccsc3)c(Cl)nc12 [CHEMBL1940861] |  |  | 5.71 | Active |
| Cc1ccsc1C(=O)/C=C/c1cc2cccc(C)c2nc1Cl [CHEMBL1940862] |  |  | 5.54 | Active |
| Cc1csc(C(=O)/C=C/c2cc3cccc(C)c3nc2Cl)c1 [CHEMBL1940863] |  |  | 5.74 | Active |
| Cc1ccc(C(=O)/C=C/c2cc3cccc(C)c3nc2Cl)s1 [CHEMBL1940864] |  |  | 5.73 | Active |
| Cc1cc(C(=O)/C=C/c2cc3cccc(C)c3nc2Cl)c(C)s1 [CHEMBL1940865] |  |  | 5.67 | Active |
| Cc1cccc2cc(/C=C/C(=O)c3sccc3Cl)c(Cl)nc12 [CHEMBL1940866] |  |  | 5.65 | Active |
| Cc1cccc2cc(/C=C/C(=O)c3ccc(Cl)s3)c(Cl)nc12 [CHEMBL1940867] |  |  | 5.73 | Active |
| Cc1cccc2cc(/C=C/C(=O)c3cc(Cl)sc3Cl)c(Cl)nc12 [CHEMBL1940868] |  |  | 5.65 | Active |
| Cc1cccc2cc(/C=C/C(=O)c3sccc3Br)c(Cl)nc12 [CHEMBL1940869] |  |  | 5.63 | Active |
| Cc1cccc2cc(/C=C/C(=O)c3ccc(Br)s3)c(Cl)nc12 [CHEMBL1940870] |  |  | 5.70 | Active |
| Cc1cccc2cc(/C=C/C(=O)c3ccc(I)s3)c(Cl)nc12 [CHEMBL1940871] |  |  | 5.82 | Active |
| O=[N+]([O-])c1ccc2nc(-c3ccccc3Cl)[nH]c2c1 [CHEMBL1947235] |  |  | 5.48 | Active |
| O=[N+]([O-])c1ccc(-c2nnc(NCc3cn(Cc4ccccc4)nn3)s2)o1 [CHEMBL1951522] | 4.71 | Inactive |  |  |

| Structure (SMILES) | pIC50 Value (L. major [1]; [3]) | Outcome (L. major [2]; [4]) | pIC50 Value (L. major [1]; [5]) | Outcome (L. major [2]; [6]) |
| --- | --- | --- | --- | --- |
| O=[N+]([O-])c1ccc(-c2nnc(NCc3cn(Cc4ccccc4F)nn3)s2)o1 [CHEMBL1951523] | 4.72 | Inactive |  |  |
| O=[N+]([O-])c1ccc(-c2nnc(NCc3cn(Cc4ccc(F)cc4)nn3)s2)o1 [CHEMBL1951524] | 4.67 | Inactive |  |  |
| O=[N+]([O-])c1ccc(-c2nnc(NCc3cn(Cc4ccccc4Cl)nn3)s2)o1 [CHEMBL1951525] | 4.72 | Inactive |  |  |
| O=[N+]([O-])c1ccc(-c2nnc(NCc3cn(Cc4cccc(Cl)c4)nn3)s2)o1 [CHEMBL1951526] | 3.97 | Inactive |  |  |
| O=[N+]([O-])c1ccc(-c2nnc(NCc3cn(Cc4ccc(Cl)cc4)nn3)s2)o1 [CHEMBL1951527] | 4.05 | Inactive |  |  |
| Cc1ccccc1Cn1cc(CNc2nnc(-c3ccc([N+](=O)[O-])o3)s2)nn1 [CHEMBL1951528] | 4.60 | Inactive |  |  |
| Cc1cccc(Cn2cc(CNc3nnc(-c4ccc([N+](=O)[O-])o4)s3)nn2)c1 [CHEMBL1951529] | 4.66 | Inactive |  |  |
| Cc1ccc(Cn2cc(CNc3nnc(-c4ccc([N+](=O)[O-])o4)s3)nn2)cc1 [CHEMBL1951530] | 4.91 | Inactive |  |  |
| O=[N+]([O-])c1ccc(Cn2cc(CNc3nnc(-c4ccc([N+](=O)[O-])o4)s3)nn2)cc1 [CHEMBL1951531] | 4.49 | Inactive |  |  |
| O=[N+]([O-])c1ccc(-c2nnc(NCc3cn(Cc4c(F)cccc4Cl)nn3)s2)o1 [CHEMBL1951532] | 4.76 | Inactive |  |  |
| O=[N+]([O-])c1ccc(-c2nnc(NCc3cn(Cc4cccc(Cl)c4Cl)nn3)s2)o1 [CHEMBL1951533] | 3.99 | Inactive |  |  |
| O=[N+]([O-])c1ccc(-c2nnc(NCc3cn(Cc4ccc(Cl)cc4Cl)nn3)s2)o1 [CHEMBL1951534] | 4.70 | Inactive |  |  |
| O=[N+]([O-])c1ccc(-c2nnc(NCc3cn(Cc4ccc(Cl)c(Cl)c4)nn3)s2)o1 [CHEMBL1951535] | 3.88 | Inactive |  |  |
| COc1cc(C)cc2c1C(=O)C=C(c1c(C)c(OC)c3ccc(O)c(OC)c3c1O)C2=O [CHEMBL2071223] |  |  | 9.82 | Active |
| COc1c(C)cc(O)c2c(OC)cccc12 [CHEMBL2071224] | 4.00 | Inactive |  |  |
| COc1cc(C)cc2c1C(=O)C=C(C1=C(C)C(=O)c3ccc(O)c(OC)c3C1=O)C2=O [CHEMBL2071225] |  |  | 10.28 | Active |
| COc1cc(C)cc2c1C(=O)C=C(c1c(C)cc3ccc(O)c(OC)c3c1O)C2=O [CHEMBL2071226] |  |  | 9.74 | Active |
| COc1c(C)cc2cccc(OC)c2c1O [CHEMBL2071227] | 4.35 | Inactive |  |  |
| COc1cccc2cc(C)cc(O)c12 [CHEMBL2071228] | 4.30 | Inactive |  |  |
| COc1ccc(OC)c2c(O)cc(C)cc12 [CHEMBL2071229] | 4.42 | Inactive |  |  |
| COc1cccc2cc(C=O)cc(O)c12 [CHEMBL2071232] | 4.00 | Inactive |  |  |
| COc1c(O)ccc2c1C(=O)C(C)=CC2=O [CHEMBL2071233] | 4.03 | Inactive |  |  |
| Cn1cc(C=Nc2ccccc2)c2ccccc21 [CHEMBL2071552] |  |  | 5.49 | Active |
| Cc1ccc(/N=C/c2cn(C)c3ccccc23)cc1 [CHEMBL2071553] |  |  | 5.58 | Active |
